Legend:
STAT1 = test: IFN-γ-induced STAT1 tyrosine phosphorylation in ME180 cells (immunoblot); assay type: cell-based, human; details: serum-starved ME180 cells; 100 μg/ml Pirfenidone for 1 h, then 10 ng/ml IFN-γ for 0-60 min; anti-phospho STAT1 immunoblot
Method: ME180 cells were grown in DMEM supplemented with 10% heat inactivated fetal calf serum, 2 mM L-glutamine, streptomycin (100 μg/ml) and penicillin (100 units/ml). Briefly, cells were seeded at a density of 5×10^6 cells in 100 mm tissue culture dishes. After 24 hrs, cells were washed with phosphate-buffered saline (PBS) and incubated in serum free growth media for 16 hours, then treated with medium or with 100 μg/ml of Pirfenidone for 1 h before treating them with Actimune (10 ng/ml) for 0-10-20-40 and 60 min. At the end of incubation period, cells were lysed by incubation in 50 mM HEPES (pH 7.0) containing 100 mM NaCl, 1.2% Triton X-100, 10% glycerol, 1.5 mM MgCl2, 100 mM NaF, 10 mM sodium pyrophosphate, 1 mM sodium orthovanadate, 1 mM EGTA (ethylene glycol-bis-β-aminoethylether-tetraacetic acid), 1 mM DTT (dithiothreitol), 1 mM phenylmethylsulfonylfloride (PMSF), 0.15 unit/ml aprotinin, 10 μg/ml leupeptin, 10 μg/ml pepstatin. Lysates were clarified by centrifugation (12.000×g for 1 min.). Equal amounts (100 μg) total proteins were subjected to SDS-PAGE on 10% polyacrylamide gels to separate the proteins. The proteins were then electrophoretically transferred from the polyacrylamide gel onto a nitrocellulose sheet for overnight at 20 mAmp, and analyzed by immunoblotting with anti-phospho STAT1-specific antibody (antibody specific for phosphorylated STAT1). […]

MKK6 = MKK6 (Homo sapiens, UniProt P52564); test: Enzymatic activity of human kinase in presence of pirfenidone; assay type: biochemical; details: percent of control activity in absence of pirfenidone, concentration not given
Method: (§1) Enzymatic activity of various human kinases was assayed in the presence and the absence of pirfenidone. Percent enzyme activity of various human enzymes in the presence of substrate and pirfenidone are shown in FIGS. 1-5, and in Table 2, below, where “percent enzyme activity” is the percent of the control activity (e.g., in the absence of pirfenidone): […]

ZAP-70 = ZAP-70 (Homo sapiens, UniProt P43403); test: as above; assay type: biochemical; details: percent of control activity in absence of pirfenidone, concentration not given
Method: as §1

IGF-1R = IGF-1R (Homo sapiens, UniProt P08069); test: as above; assay type: biochemical; details: percent of control activity in absence of pirfenidone, concentration not given
Method: as §1

CDK7/cyclinH/MAT1 = CDK7/cyclinH/MAT1 (Homo sapiens, UniProt P50613); test: as above; assay type: biochemical; details: percent of control activity in absence of pirfenidone, concentration not given
Method: as §1

Rsk2 = Rsk2 (Homo sapiens, UniProt P51812); test: as above; assay type: biochemical; details: percent of control activity in absence of pirfenidone, concentration not given
Sequence of Rsk2 (P51812 whole entry): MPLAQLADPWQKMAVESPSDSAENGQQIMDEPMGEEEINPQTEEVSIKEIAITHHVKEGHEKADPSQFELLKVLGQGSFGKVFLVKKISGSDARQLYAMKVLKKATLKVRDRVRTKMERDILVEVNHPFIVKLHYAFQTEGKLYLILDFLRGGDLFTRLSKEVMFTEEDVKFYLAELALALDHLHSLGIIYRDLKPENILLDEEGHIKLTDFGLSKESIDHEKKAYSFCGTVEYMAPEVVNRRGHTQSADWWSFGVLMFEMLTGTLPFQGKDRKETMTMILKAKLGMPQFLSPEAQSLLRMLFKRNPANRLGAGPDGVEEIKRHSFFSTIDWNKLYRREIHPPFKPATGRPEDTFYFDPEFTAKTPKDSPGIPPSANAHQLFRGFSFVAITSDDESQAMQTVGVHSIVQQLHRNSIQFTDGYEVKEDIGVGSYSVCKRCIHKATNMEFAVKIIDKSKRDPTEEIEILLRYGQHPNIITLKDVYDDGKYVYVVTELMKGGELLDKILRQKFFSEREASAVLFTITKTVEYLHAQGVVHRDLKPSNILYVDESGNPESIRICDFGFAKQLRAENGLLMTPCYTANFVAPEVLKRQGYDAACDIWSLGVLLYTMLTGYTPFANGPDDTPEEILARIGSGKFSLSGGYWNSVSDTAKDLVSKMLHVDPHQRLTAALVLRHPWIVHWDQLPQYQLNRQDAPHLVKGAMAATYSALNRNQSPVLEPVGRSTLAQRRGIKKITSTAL
Method: as §1

cSRC = cSRC (Homo sapiens, UniProt P12931); test: as above; assay type: biochemical; details: percent of control activity in absence of pirfenidone, concentration not given
Sequence of cSRC (P12931 whole entry): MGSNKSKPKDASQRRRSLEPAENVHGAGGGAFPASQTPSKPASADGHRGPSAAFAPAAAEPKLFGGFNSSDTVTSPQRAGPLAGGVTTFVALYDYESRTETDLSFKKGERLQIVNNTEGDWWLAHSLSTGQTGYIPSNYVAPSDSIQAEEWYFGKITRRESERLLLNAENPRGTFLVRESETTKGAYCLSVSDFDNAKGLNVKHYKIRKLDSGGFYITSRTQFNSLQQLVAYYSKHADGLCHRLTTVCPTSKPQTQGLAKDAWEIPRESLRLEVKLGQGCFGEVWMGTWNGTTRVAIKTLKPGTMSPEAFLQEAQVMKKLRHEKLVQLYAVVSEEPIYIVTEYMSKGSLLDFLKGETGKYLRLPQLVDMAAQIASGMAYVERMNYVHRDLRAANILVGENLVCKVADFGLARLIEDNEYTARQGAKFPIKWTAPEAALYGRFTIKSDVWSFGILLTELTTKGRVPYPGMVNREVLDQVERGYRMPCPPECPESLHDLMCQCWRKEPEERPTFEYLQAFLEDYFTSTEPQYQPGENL
Method: as §1

MAPKAP-K2 = MAPKAP-K2 (Homo sapiens, UniProt P49137); test: as above; assay type: biochemical; details: percent of control activity in absence of pirfenidone, concentration not given
Method: as §1

PKCa = test: as above; assay type: biochemical; details: percent of control activity in absence of pirfenidone, concentration not given
Method: as §1

PDGFR = PDGFR (Homo sapiens, UniProt P16234); test: as above; assay type: biochemical; details: percent of control activity in absence of pirfenidone, concentration not given
Method: as §1

CDK1/cyclinB = CDK1/cyclinB (Homo sapiens, UniProt P06493); test: as above; assay type: biochemical; details: percent of control activity in absence of pirfenidone, concentration not given
Sequence of CDK1/cyclinB (P06493 whole entry): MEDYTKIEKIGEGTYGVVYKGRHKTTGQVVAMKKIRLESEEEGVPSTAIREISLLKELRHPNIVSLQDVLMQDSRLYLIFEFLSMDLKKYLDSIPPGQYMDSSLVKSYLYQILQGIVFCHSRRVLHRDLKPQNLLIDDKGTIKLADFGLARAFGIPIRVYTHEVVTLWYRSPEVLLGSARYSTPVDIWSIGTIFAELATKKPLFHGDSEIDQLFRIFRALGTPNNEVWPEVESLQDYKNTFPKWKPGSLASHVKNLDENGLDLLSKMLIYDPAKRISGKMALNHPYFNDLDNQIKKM
Sequence of CDK1/cyclinB (P14635 whole entry partner): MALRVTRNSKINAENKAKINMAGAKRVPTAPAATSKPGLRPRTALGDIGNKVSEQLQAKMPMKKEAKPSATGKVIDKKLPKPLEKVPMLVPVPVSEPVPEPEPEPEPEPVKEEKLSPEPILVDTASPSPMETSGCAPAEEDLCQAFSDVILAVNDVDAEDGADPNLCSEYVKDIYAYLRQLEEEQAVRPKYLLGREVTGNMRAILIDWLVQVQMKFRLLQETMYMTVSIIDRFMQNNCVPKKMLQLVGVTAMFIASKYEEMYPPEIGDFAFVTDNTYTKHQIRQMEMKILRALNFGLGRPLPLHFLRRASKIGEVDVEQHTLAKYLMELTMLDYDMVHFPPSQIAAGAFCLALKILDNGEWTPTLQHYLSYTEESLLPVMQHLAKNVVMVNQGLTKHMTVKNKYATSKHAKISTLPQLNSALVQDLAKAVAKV
Method: as §1

PKCo = test: as above; assay type: biochemical; details: percent of control activity in absence of pirfenidone, concentration not given
Method: as §1

MAPK1 (Homo sapiens) = test: as above; assay type: biochemical; details: percent of control activity in absence of pirfenidone, concentration not given
Sequence of MAPK1 (Homo sapiens) (P27361 whole entry): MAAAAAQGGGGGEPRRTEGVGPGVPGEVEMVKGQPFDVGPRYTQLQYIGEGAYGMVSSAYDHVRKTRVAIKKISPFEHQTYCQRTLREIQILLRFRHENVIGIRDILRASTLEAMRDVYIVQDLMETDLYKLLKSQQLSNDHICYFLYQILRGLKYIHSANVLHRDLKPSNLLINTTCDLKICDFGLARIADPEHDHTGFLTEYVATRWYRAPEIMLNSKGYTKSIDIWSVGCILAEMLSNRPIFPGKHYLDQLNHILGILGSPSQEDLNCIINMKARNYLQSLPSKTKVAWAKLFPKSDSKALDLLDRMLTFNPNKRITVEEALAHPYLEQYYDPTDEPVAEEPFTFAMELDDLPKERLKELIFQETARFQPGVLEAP
Method: as §1

Syk = Syk (Homo sapiens, UniProt P43405); test: as above; assay type: biochemical; details: percent of control activity in absence of pirfenidone, concentration not given
Method: as §1

PKCη = PKCη (Homo sapiens, UniProt P24723); test: as above; assay type: biochemical; details: percent of control activity in absence of pirfenidone, concentration not given
Sequence of PKCη (P24723 whole entry): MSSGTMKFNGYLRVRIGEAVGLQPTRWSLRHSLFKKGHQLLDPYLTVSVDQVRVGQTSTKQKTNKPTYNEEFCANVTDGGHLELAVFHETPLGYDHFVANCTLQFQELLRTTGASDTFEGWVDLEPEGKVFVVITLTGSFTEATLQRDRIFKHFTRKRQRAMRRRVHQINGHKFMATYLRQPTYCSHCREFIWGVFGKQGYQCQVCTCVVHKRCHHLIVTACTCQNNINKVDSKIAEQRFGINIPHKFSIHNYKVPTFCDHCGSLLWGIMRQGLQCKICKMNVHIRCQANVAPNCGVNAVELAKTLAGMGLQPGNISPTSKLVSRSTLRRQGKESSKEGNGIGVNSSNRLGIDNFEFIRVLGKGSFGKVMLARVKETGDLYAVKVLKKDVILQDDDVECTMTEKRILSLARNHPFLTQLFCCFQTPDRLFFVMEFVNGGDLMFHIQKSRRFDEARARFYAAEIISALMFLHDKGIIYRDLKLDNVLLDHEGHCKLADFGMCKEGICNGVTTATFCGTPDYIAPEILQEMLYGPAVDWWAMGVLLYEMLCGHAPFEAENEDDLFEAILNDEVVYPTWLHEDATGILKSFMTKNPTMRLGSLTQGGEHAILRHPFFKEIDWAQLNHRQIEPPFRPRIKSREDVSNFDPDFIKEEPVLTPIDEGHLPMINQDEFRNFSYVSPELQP
Method: as §1

Yes = Yes (Homo sapiens, UniProt P07947); test: as above; assay type: biochemical; details: percent of control activity in absence of pirfenidone, concentration not given
Sequence of Yes (P07947 whole entry): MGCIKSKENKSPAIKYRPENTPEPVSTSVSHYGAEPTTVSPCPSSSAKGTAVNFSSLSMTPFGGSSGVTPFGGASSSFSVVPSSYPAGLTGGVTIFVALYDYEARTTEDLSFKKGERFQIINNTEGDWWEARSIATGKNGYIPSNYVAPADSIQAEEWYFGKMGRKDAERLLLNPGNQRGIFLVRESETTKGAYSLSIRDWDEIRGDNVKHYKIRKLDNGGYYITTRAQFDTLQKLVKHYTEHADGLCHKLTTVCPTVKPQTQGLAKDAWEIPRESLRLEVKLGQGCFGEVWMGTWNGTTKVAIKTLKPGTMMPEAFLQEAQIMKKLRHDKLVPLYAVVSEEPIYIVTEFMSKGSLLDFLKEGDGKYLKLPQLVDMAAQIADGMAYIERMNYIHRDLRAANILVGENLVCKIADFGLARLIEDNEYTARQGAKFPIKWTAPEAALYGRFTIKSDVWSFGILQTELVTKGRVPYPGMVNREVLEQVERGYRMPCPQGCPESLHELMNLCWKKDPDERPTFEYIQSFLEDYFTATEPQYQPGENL
Method: as §1

MKK7β = MKK7β (Homo sapiens, UniProt O14733); test: as above; assay type: biochemical; details: percent of control activity in absence of pirfenidone, concentration not given
Sequence of MKK7β (O14733 whole entry): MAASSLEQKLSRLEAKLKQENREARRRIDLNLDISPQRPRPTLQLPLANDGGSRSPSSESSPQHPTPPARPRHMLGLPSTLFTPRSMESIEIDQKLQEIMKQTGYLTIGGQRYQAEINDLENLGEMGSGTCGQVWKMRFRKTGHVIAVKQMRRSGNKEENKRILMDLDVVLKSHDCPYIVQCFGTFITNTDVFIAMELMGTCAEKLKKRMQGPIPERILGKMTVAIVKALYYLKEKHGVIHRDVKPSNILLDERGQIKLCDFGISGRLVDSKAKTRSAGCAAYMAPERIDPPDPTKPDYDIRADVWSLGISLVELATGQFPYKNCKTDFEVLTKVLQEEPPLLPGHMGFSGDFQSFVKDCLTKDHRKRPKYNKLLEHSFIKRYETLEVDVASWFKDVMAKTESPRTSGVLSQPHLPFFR
Method: as §1

GSK3α = GSK3α (Homo sapiens, UniProt P49840); test: as above; assay type: biochemical; details: percent of control activity in absence of pirfenidone, concentration not given
Method: as §1

CDK5/cyclinB = CDK5/cyclinB (Homo sapiens, UniProt Q00535); test: as above; assay type: biochemical; details: percent of control activity in absence of pirfenidone, concentration not given
Method: as §1

PDK1 = PDK1 (Homo sapiens, UniProt O15530); test: as above; assay type: biochemical; details: percent of control activity in absence of pirfenidone, concentration not given
Method: as §1

PKBβ = PKBβ (Homo sapiens, UniProt P31751); test: as above; assay type: biochemical; details: percent of control activity in absence of pirfenidone, concentration not given
Method: as §1

MAPK2 = MAPK2 (Homo sapiens, UniProt P28482); test: as above; assay type: biochemical; details: percent of control activity in absence of pirfenidone, concentration not given
Sequence of MAPK2 (P28482 whole entry): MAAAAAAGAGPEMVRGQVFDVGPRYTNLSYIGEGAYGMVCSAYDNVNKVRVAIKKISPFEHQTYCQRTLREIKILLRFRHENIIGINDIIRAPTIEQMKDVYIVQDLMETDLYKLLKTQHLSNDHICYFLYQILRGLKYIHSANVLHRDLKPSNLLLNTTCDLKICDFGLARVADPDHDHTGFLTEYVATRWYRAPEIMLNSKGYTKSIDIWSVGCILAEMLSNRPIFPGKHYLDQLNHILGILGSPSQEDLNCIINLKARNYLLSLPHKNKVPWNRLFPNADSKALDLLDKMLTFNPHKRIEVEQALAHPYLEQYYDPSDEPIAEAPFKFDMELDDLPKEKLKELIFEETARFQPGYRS
Method: as §1

PKCμ = PKCμ (Homo sapiens, UniProt Q15139); test: as above; assay type: biochemical; details: percent of control activity in absence of pirfenidone, concentration not given
Method: as §1

PKA = PKA (Homo sapiens, UniProt P17612); test: as above; assay type: biochemical; details: percent of control activity in absence of pirfenidone, concentration not given
Method: as §1

PAK2 = PAK2 (Homo sapiens, UniProt Q13177); test: as above; assay type: biochemical; details: percent of control activity in absence of pirfenidone, concentration not given
Sequence of PAK2 (Q13177 whole entry): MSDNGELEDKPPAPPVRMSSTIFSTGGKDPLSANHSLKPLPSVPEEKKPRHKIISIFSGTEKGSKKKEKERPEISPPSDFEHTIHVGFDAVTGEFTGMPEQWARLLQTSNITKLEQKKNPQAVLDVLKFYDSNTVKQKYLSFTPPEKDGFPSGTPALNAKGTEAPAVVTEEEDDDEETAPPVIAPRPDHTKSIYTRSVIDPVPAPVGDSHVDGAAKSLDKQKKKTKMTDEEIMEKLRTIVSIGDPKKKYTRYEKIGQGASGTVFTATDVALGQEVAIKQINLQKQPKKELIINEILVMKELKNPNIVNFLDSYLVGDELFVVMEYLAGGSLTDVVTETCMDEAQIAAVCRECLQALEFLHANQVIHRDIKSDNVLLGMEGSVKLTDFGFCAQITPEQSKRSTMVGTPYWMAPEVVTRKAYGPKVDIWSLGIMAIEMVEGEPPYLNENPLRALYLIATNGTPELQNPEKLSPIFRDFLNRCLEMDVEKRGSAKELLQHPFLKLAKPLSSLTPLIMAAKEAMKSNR
Method: as §1

Flt3 = Flt3 (Homo sapiens, UniProt P36888); test: as above; assay type: biochemical; details: percent of control activity in absence of pirfenidone, concentration not given
Method: as §1

CDK2/cyclinE = CDK2/cyclinE (Homo sapiens, UniProt P24941); test: as above; assay type: biochemical; details: percent of control activity in absence of pirfenidone, concentration not given
Method: as §1

IKKα = IKKα (Homo sapiens, UniProt O15111); test: as above; assay type: biochemical; details: percent of control activity in absence of pirfenidone, concentration not given
Method: as §1

c-RAF = c-RAF (Homo sapiens, UniProt P04049); test: as above; assay type: biochemical; details: percent of control activity in absence of pirfenidone, concentration not given
Method: as §1

CHK1 = CHK1 (Homo sapiens, UniProt O14757); test: as above; assay type: biochemical; details: percent of control activity in absence of pirfenidone, concentration not given
Method: as §1

With `Cc1ccc(=O)n(-c2ccccc2)c1` [pirfenidone, 5-methyl-1-phenyl-2-(1H)-pyridone] the “Effect on IFN-γ-induced STAT1 tyrosine phosphorylation” value (STAT1) was “does not affect”, the “% Activity” value (MKK6) was 84% and the “% Activity” value (ZAP-70) was 109%. For the same compound, the “% Activity” value (IGF-1R) was 92%, the “% Activity” value (CDK7/cyclinH/MAT1) was 95% and the “% Activity” value (Rsk2) was 99%. The “% Activity” value (cSRC) was 91%, the “% Activity” value (MAPKAP-K2) was 97% and the “% Activity” value (PKCa) was 96%. The “% Activity” value (PDGFR) was 101%, the “% Activity” value (CDK1/cyclinB) was 102% and the “% Activity” value (PKCo) was 106%. For the same compound, the “% Activity” value (MAPK1 (Homo sapiens)) was 98%, the “% Activity” value (Syk) was 78% and the “% Activity” value (PKCη) was 88%. For the same compound, the “% Activity” value (Yes) was 104%, the “% Activity” value (MKK7β) was 105% and the “% Activity” value (GSK3α) was 91%. For the same compound, the “% Activity” value (CDK5/cyclinB) was 102%, the “% Activity” value (PDK1) was 93% and the “% Activity” value (PKBβ) was 88%. The “% Activity” value (MAPK2) was 100%, the “% Activity” value (PKCμ) was 96% and the “% Activity” value (PKA) was 109%. For the same compound, the “% Activity” value (PAK2) was 93%, the “% Activity” value (Flt3) was 103% and the “% Activity” value (CDK2/cyclinE) was 89%. The “% Activity” value (IKKα) was 114%, the “% Activity” value (c-RAF) was 91% and the “% Activity” value (CHK1) was 105%.
